Results reported in article PMC11472058, “Trinucleotide cap analogs with triphosphate chain modifications: synthesis, properties, and evaluation as mRNA capping reagents” (Nucleic Acids Research, 2024).

Tested on: BALB/c mice
Experiment: In vivo translation efficacy of FLuc-encoding mRNA-LNPs (whole body bioluminescence)
Settings: 10 μg mRNA i.v., 4, 8 and 24 h
Description: Two reporters were selected to determine in vivo protein production: firefly luciferase (FLuc) and human erythropoietin (hEPO). The mRNA encoding each gene was obtained by IVT using T7 RNA polymerase for co-transcriptional capping with m^7Gppp^5′SAmpG and m^7GpppAmpG as the reference cap structure. 500 μl or 1000 μl of the IVT mix (for obtaining mRNA encoding hEPO or FLuc, respectively) contained following components at indicated final concentration: transcription buffer with 2 mM spermidine and Bis-Tris pH 6.5, 1 U/μl RNase inhibitor (RiboLock, ThermoFisher Scientific), 5 mM ATP, CTP and UTP, 4 mM GTP, 10 mM DTT, 25 mM MgCl2, 0.002 U/μl inorganic pyrophosphatase (ThermoFisher Scientific), 10 mM m^7GpppAmpG or m^7Gppp^5’SAmpG, 40 ng/μl linearized plasmid as the DNA template and 0.125 μg/μl T7 RNA polymerase (in-house prepared). All components were gently mixed by pipetting and incubated for one hour at 37°C. After DNA template removal, obtained mRNA was initially purified using oligo(dT)25 resin, as previously described, and concentrated by ultrafiltration (Amicon Ultra-15 50K or 100K, Millipore) prior loading on preparative column. […] Eluate quality was analyzed on 1 × TBE 1.2% agarose gel, and the fractions containing mRNA of the highest purity were combined, desalted by ultrafiltration (Amicon Ultra-15 50K or 100K, Millipore), and precipitated. […]

CO[C@@H]1[C@H](OP(=O)(O)OC[C@H]2O[C@@H](n3cnc4c(=O)[nH]c(N)nc43)[C@H](O)[C@@H]2O)[C@@H](CSP(=O)([O-])OP(=O)(O)OP(=O)(O)OC[C@H]2O[C@@H](n3c[n+](C)c4c(O)nc(N)nc43)[C@H](O)[C@@H]2O)O[C@H]1n1cnc2c(N)ncnc21 [Compound 8, m^7Gppp^5’SAmpG]
FLuc protein expression (whole body bioluminescence) versus m^7GpppAmpG-capped mRNA (in words) (GeneVoy LNP): the effect was the opposite
FLuc protein expression (whole body bioluminescence) versus m^7GpppAmpG-capped mRNA (in words) (SM-102 LNP): no significant differences
